Counter-ions that a name gives are not always drawn.
Tests used:
Human CCR3 = biological target: T1, Human CCR3 (Homo sapiens, UniProt P51677); test: Calcium mobilization assay (Ca2+), eotaxin-stimulated human CCR3-transformed K562 cells; type: cell-based; conditions: compounds of about 40 to 90% purity, read-out: Activity grade IC50
T1 construct: The cloned CCR3 cDNA was constructed with pcDNA3 vector and transfected into a K562 cell line; expressed in transfected cells
T1 sequence (P51677 1-355): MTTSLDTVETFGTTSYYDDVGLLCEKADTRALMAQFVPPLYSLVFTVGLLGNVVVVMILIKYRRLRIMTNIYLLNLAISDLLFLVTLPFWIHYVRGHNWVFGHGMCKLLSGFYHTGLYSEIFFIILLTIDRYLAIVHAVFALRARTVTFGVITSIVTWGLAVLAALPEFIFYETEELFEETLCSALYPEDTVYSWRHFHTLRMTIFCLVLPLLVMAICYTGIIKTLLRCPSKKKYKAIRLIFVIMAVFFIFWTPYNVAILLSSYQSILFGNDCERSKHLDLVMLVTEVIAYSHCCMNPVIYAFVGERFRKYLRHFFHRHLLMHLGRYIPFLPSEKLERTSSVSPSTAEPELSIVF
Procedure: • Human CCR3-transformed K562 cells were used. The cloned CCR3 cDNA was constructed with pcDNA3 vector and transfected into a K562 cell line. The human CCR3-transformed K562 cells were maintained in RPMI-1640 (Cat.#22400-089, Life Technologies) supplemented with 10% FCS (Cat.#A-1115-L, Hyclone), 55 μM 2-mercaptoethanol (Cat.#21985-023, Life Technologies), 1 mM sodium pyruvate (Cat.#11360-070, Life Technologies), 100 units/ml of penicillin G and 100 μg/ml of streptomycin (Cat.#15140-122, Life Technologies), and 0.4 mg/ml of Geneticin (Cat.#10131-035, Life Technologies) (hereinafter called “culture medium”). Before the receptor binding assay, cells were pretreated with 5 mM sodium butyrate (Cat.#193-01522, Wako)-containing the culture medium (2×10^5 cells/ml) for 20-24 hours to increase the expression of CCR3. (2) Receptor Binding Assay • Butyrate-pretreated cells, suspended in binding buffer (25 mM HEPES pH 7.6, 1 mM CaCl2, 5 mM MgCl2, 0.5% BSA, 0.1% NaN3) at a cell density of 2×10^6 cells/ml, were added into 60 μl/well in the 96-well round bottom polypropylene plate (Cat.#3365, Costar). Compounds, diluted with the binding buffer (4-times higher concentration of the final concentration), were added into 30 μl/well in the polypropylene plate. [^125I]-labeled human eotaxin (Cat.#IM290, Amersham Pharmacia Biotech), diluted with the binding buffer at the concentration of 0.4 nM (final concentration; 0.1 nM), was added into 30 μl/well in the polypropylene plate. Total 120 μl/well of binding reaction mixture (60 μl/well of cell suspension, 30 μl/well of compound solution, and 30 μl/well of [^125I]-labeled eotaxin) were incubated in the polypropylene plate for 1 hour at room temperature after the incubation, 100 μl/well of the reaction mixture was transferred to a filtration plate (Cat.#MAFB-N0B, Millipore), and washed with the washing buffer (25 mM HEPES pH 7.6, 1 mM CaCl2, 5 mM MgCl2, 0.5% BSA, 0.1% NaN3, 0.5 M NaCl) twice. The 96-well filtration plate was pretreated with 100 μl/well of 0.5% polyethylenimine (Cat.#P-3143, Sigma) for 2-4 hours at room temperature and washed with the washing buffer twice before use. The non-specific binding was determined by parallel incubation in the presence of 500 nM of non-labeled eotaxin (Cat.#23209, Genzyme Techne). The radioactivities remained on the filter were measured by liquid scintillation counter (TopCount™, Packard) after an addition of 45 μl/well of scintillant (Microscint20, Cat.#6013621, Packard). The inhibition percent at each concentration of compound was calculated, and IC50 values were determined from the inhibition curve. [Determination of IC50 Values of Compounds in Calcium Mobilization Assay] (1) Cell • Human CCR3-transformed K562 cells were used. The human CCR3-transformed K562 cells were maintained in RPMI-1640 supplemented with 10% FCS, 55 μM 2-mercaptoethanol (Cat.#21985-023, Life Technologies), 1 mM sodium pyruvate, 100 units/ml of penicillin G and 100 μg/ml of streptomycin, and 0.4 mg/ml of Geneticin. Before the calcium mobilization assay, cells were pretreated with 5 mM sodium butyrate-containing the culture medium (2×10^5 cells/ml) for 20-24 hours to increase the expression of CCR3. (2) Calcium Mobilization Assay • Butyrate-pretreated cells were loaded with Fluo-3AM (Cat.#F-1242, Molecular Probes) in loading buffer (Hanks' solution Cat.#05906 Nissui, 20 mM HEPES pH 7.6, 0.1% BSA, 1 mM probenecid Cat.#P-8761 Sigma, 1 μM Fluo-3AM, 0.01% pluronic F-127 Cat.#P-6866 Molecular Probes) at a cell density of 1×10^7 cells/ml. Then, cells were washed with calcium assay buffer (Hanks' solution Cat.#05906 Nissui, 20 mM HEPES pH 7.6, 0.1% BSA, 1 mM Probenecid Cat.#P-8761 Sigma). The cell suspension (3.3×10^6 cells/ml) was added into 60 μl/well in the 96-well clear bottom black plate (Cat.#3904, Costar). Compounds, diluted (5-times concentration of the final concentration) with the calcium assay buffer, were added into 20 μl/well in the plate 10 minutes before assay. […]

For N#Cc1ccc(Oc2cc(Cl)cc(Cl)c2)c(S(=O)(=O)C2CCNCC2)c1 (as salt: hydrochloride) [Example 2-1, 4-(3,5-Dichloro-phenoxy)-3-(piperidine-4-sulfonyl)-benzonitrile], the melting point was 220 to 226 °C (dec.).
For O=[N+]([O-])c1ccc(Sc2cc(Cl)cc(Cl)c2)c(S(=O)(=O)N[C@H]2CN3CCC2CC3)c1 (stereo in doubt), the melting point was 256 °C.
Compound CC(C)(C)[Si](C)(C)O[C@H]1CN(C2CCN(S(=O)(=O)c3cc(C#N)ccc3Oc3cc(Cl)cc(Cl)c3)CC2)C[C@@H]1O [Example 1-14] has an IC50 (Human CCR3) of 100 to 500 nM.
With N#Cc1ccc(Oc2cc(Cl)cc(Cl)c2)c(S(=O)(=O)N2CC[C@H](N(CCO)CCO)C2)c1 [Example 1-15] the IC50 (Human CCR3) was 100 to 500 nM and the melting point was 153 to 154 °C.
For N#Cc1ccc(Oc2cc(Cl)cc(Cl)c2)c(S(=O)(=O)N[C@@H]2CC3OC3C[C@@H]2N)c1 (stereo partly drawn) [Example 1-17], the IC50 (Human CCR3) was over 500 nM and the melting point was 165 to 182 °C (dec.).
Compound N#Cc1ccc(Oc2cc(Cl)cc(Cl)c2)c(S(=O)(=O)N2CC[C@H](N3C[C@H](O)[C@@H](O)C3)C2)c1 [Example 1-18] has an IC50 (Human CCR3) of 100 to 500 nM.
N#Cc1ccc(Oc2cc(Cl)cc(Cl)c2)c(S(=O)(=O)N[C@@H]2C[C@H](O)[C@@H](O)C[C@@H]2N)c1 [Example 1-19] showed an IC50 (Human CCR3) of over 500 nM.
Cl.Cl.N#Cc1ccc(Oc2cc(Cl)cc(Cl)c2)c(S(=O)(=O)N2CCNC(CN)C2)c1 (stereo not drawn) [Example 1-20] gave an IC50 (Human CCR3) of over 500 nM and a melting point of 240 to 241 °C.
For CN(C)CCN(C)CCN(C)S(=O)(=O)c1cc(C#N)ccc1Oc1cc(Cl)cc(Cl)c1 [Example 1-23], the IC50 (Human CCR3) was 100 to 500 nM.
N#Cc1ccc(Oc2cc(Cl)cc(Cl)c2)c(S(=O)(=O)NC2CCCCNC2=O)c1 (stereo not drawn) [Example 1-24] showed an IC50 (Human CCR3) of 100 to 500 nM and a melting point of 172 to 173 °C.
Compound COC(=O)C1CN(C2CCNCC2)CCCN1S(=O)(=O)c1cc(C#N)ccc1Oc1cc(Cl)cc(Cl)c1 (stereo not drawn) [Example 1-25] has an IC50 (Human CCR3) of 100 to 500 nM.
For O=S(=O)(c1cc(-n2cnnn2)ccc1Oc1cc(Cl)cc(Cl)c1)N1CCNCC1 [Example 1-30], the IC50 (Human CCR3) was over 500 nM.
N#Cc1ccc(Oc2cc(Cl)cc(Cl)c2)c(S(=O)(=O)N(CCN2C(=O)CCC2=O)[C@H]2CN3CCC2CC3)c1 [Example 1-38] showed an IC50 (Human CCR3) of over 500 nM.
For CN(C)CC(NS(=O)(=O)c1cc(C#N)ccc1Oc1cc(Cl)cc(Cl)c1)C(=O)O (stereo not drawn) [Example 1-40], the IC50 (Human CCR3) was over 500 nM and the melting point was 190 °C.
N#Cc1ccc(Oc2cc(Cl)cc(Cl)c2)c(S(=O)(=O)NC2CN(Cc3ccccc3)CCN(Cc3ccccc3)C2)c1 [Example 1-41] showed an IC50 (Human CCR3) of over 500 nM.
For Cl.N#Cc1ccc(Oc2cc(Cl)cc(Cl)c2)c(S(=O)(=O)C2CCNCC2)c1 [Example 1-47], the melting point was 220 to 226 °C (dec.).

From US9206186B2, “2-phenoxy- and 2-phenylsulfonamide derivatives with CCR3 antagonistic activity for the treatment of inflammatory or immunological disorders” (AXIKIN PHARMACEUTICALS, INC., priority 2003, dated 2015)
